Reference: patent US9809623B2, “α4β7 peptide monomer and dimer antagonists” (Protagonist Therapeutics, Inc., priority 2014, dated 2017)
Read-outs that look alike come from different tables or passages of the source. Numbered stars: 1 amine (or outer) side, 2 acyl side, 3 side chain; on linkers, the order of the positions; unused ones are H or OH. Bridge positions count the residues as written; N and C are the ends. Square brackets hold non-standard residues; d marks the D form. Peptide text beside a SMILES is read from it. I, II: the chains in the order shown. Phe(4-tBu) = CC(C)(C)c1ccc(C[C@H](N)C(=O)O)cc1; 2Nal = N[C@@H](Cc1ccc2ccccc2c1)C(=O)O; Diglycolyl = O=C(COCC(=O)[*:2])[*:1]; NMeR = CN[C@@H](CCCNC(=N)N)C(=O)O; β3hE = N[C@@H](CCC(=O)O)CC(=O)O; Pen = CC(C)(S)[C@H](N)C(=O)O

How the values were obtained:
[1] = molecular target: T1, α4β1 (Homo sapiens, UniProt P05556+P13612, DEL729-798); experiment: α4β1-VCAM Competition ELISA; format: binding; settings: Table 3-B, Selectivity (α4β1); range classes; read-out: α4β1 ELISA IC50
T1 construct: purchased R&D Systems 5668-A4
T1 sequence (P13612 34-977 limits assumed, stated change not applied): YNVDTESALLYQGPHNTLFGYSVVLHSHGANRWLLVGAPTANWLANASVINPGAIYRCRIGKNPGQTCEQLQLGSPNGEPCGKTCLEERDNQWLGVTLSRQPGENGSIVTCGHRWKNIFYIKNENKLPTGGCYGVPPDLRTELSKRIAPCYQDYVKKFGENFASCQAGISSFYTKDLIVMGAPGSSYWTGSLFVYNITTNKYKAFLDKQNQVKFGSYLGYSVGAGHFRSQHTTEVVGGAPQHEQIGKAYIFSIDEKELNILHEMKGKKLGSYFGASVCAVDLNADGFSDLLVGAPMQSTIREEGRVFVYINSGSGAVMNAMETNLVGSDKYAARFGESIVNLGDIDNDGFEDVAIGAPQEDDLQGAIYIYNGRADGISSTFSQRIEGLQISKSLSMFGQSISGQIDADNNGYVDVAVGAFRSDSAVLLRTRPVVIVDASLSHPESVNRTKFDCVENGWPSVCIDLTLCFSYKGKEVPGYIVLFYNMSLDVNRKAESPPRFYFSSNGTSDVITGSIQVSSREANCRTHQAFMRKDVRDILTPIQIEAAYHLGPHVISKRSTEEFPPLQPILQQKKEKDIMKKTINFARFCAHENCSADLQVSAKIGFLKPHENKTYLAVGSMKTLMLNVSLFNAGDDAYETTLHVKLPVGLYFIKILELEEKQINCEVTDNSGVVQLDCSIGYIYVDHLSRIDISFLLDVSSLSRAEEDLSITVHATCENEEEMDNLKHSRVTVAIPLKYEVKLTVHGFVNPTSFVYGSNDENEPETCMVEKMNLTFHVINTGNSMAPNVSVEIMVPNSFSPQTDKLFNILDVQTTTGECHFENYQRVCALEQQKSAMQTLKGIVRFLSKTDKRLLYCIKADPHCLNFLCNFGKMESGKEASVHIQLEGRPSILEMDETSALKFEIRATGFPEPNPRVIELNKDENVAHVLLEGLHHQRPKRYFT
T1 sequence (P05556 21-728 limits assumed, stated change not applied): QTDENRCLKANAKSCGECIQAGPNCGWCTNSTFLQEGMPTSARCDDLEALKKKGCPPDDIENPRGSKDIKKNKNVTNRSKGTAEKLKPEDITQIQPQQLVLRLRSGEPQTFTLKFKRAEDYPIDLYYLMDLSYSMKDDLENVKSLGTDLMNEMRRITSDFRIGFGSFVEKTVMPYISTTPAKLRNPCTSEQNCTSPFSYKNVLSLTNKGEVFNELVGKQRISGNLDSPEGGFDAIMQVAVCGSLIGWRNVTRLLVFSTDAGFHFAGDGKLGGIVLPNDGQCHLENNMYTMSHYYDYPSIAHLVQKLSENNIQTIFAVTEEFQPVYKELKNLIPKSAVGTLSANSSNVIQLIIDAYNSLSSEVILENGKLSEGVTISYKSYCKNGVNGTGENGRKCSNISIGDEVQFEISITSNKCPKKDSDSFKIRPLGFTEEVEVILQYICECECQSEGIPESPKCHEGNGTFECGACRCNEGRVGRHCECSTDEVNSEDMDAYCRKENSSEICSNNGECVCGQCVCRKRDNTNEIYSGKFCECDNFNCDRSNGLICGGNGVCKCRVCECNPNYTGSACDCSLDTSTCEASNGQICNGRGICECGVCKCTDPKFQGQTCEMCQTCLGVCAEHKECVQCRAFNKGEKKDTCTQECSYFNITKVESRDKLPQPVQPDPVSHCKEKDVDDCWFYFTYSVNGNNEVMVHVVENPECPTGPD
Summary of the method: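 Recombinant α4β1 (60 nM final) competed with serially diluted peptides (top final 100 μM) for VCAM-1 Fc coated at 400 ng/well, in Tris pH 7.6 with 1 mM MnCl2 or MgCl2, for 2 h at 37 °C. Bound integrin was detected with anti-CD49d 9F10 plus HRP anti-mouse IgG, using TMB read at 450 nm.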

[2] = molecular target: α4β1 (Homo sapiens, UniProt P05556+P13612); experiment: α4β1-VCAM Cell Adhesion Assay (Jurkat E6.1 human cells); format: cell-based; parameters: host or cells: Jurkat E6.1 human T cells; settings: Table 3-B, Selectivity (α4β1); range classes; read-out: α4β1 cell IC50
Chain of α4β1 (Homo sapiens, UniProt P05556+P13612) (P13612 34-1032): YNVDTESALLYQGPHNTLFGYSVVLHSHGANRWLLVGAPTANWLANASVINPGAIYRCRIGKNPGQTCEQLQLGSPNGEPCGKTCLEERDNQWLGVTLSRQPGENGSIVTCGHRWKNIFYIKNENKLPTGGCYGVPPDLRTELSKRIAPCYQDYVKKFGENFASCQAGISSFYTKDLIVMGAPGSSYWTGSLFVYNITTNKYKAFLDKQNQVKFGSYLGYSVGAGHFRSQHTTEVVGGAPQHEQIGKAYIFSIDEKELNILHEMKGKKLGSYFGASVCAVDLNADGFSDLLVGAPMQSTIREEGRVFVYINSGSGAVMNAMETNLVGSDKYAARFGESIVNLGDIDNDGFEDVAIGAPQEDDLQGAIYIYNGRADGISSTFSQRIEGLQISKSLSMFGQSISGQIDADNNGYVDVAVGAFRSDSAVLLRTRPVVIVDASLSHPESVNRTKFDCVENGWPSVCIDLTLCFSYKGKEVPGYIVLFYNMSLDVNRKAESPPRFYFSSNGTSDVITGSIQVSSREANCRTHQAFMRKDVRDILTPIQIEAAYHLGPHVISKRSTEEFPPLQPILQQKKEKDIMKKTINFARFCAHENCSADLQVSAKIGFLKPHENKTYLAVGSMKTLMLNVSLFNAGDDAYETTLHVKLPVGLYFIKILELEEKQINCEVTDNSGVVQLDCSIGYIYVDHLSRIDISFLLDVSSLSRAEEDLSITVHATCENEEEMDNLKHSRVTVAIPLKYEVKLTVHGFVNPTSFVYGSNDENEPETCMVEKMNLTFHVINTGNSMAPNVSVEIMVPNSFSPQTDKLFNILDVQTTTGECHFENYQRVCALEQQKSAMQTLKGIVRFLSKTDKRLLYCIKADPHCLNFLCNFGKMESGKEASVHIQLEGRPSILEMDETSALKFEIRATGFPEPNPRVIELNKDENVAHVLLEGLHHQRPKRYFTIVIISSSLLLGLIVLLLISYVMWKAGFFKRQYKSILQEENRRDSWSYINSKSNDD
Chain of α4β1 (Homo sapiens, UniProt P05556+P13612) (P05556 21-798): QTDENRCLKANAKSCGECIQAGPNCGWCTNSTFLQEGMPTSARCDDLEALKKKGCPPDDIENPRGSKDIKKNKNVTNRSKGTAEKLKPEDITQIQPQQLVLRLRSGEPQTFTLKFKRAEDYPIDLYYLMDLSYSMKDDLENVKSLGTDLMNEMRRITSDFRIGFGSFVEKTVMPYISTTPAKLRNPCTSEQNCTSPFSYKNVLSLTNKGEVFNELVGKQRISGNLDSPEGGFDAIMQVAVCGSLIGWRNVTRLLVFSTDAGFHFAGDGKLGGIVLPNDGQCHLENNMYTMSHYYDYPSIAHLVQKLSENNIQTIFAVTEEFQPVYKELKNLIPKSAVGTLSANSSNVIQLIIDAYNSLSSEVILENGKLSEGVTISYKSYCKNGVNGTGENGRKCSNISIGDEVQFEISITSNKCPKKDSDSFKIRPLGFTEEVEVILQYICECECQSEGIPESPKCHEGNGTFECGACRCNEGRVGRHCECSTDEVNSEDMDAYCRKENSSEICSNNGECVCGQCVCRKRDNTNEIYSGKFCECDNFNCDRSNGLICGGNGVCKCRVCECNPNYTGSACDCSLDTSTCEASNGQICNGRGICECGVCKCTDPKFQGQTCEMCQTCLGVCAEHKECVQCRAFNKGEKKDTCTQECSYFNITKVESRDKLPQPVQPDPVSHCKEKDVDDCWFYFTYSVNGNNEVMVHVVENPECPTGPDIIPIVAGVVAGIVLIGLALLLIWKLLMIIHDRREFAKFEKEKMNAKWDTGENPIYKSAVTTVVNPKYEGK
Description: Jurkat E6.1 human cells (Sigma #88042803) were cultured in RPMI 1640 HEPES medium (Invitrogen #22400-089) supplemented with 10% serum (Fetal Bovine Serum, Invitrogen #16140-071), 1 mM sodium pyruvate (Invitrogen #11360-070), 2 mM L-glutamine (Invitrogen #25030-081) and Penicillin-Streptomycin (Invitrogen #15140-122) at 100 units of penicillin and 100 μg of streptomycin per ml. The cells were washed two times in DMEM medium (ATCC #30-2002) supplemented with 0.1% BSA, 10 mM HEPES pH 7 and 1 mM MnCl2. The cells were re-suspended in supplemented DMEM medium at a density of 4×10^6 cells/ml.
A Nunc MaxiSorp plate was coated with rh VCAM-1/CD106 Fc chimera (R&D #862-VC) at 400 ng per well in 50 ul per well in 1×PBS and incubated at 4° C. overnight. The solution was then removed by shaking, blocked with 250 ul per well PBS containing 1% BSA, and incubated at 37° C. for 1 hr. The solution was removed by shaking. Peptides were diluted by serial dilution in a final volume of 50 ul per well (2× concentration). To each well, 50 ul of cells (200,000 cells) were added and the plate was incubated at 37° C., 5% CO2 for 30-45 min to allow cell adhesion. The wells were washed manually three times (100 ul per wash) with supplemented DMEM. After the final wash, 100 ul/well of supplemented DMEM and 10 ul/well of MTT reagent (ATTC cat#30-1010K) were added. The plate was incubated at 37° C., 5% CO2 for 2-3 hrs until a purple precipitate was visible. 100 ul of Detergent Reagent (ATTC cat#30-1010K) was added to each well. The plate was covered from the light, wrapped in Parafilm to prevent evaporation, and left overnight at room temperature in the dark. The plate was shaken for 5 min and the absorbance at 570 nm was measured. To calculate the dose response, the absorbance value of control wells not containing cells was subtracted from each test well.

[3] = molecular target: T2, α4β7 (Homo sapiens, UniProt P13612+P26010); experiment: α4β7-MAdCAM Cell Adhesion Assay (RPMI 8866 human cells); format: cell-based; parameters: host or cells: RPMI 8866 human B lymphoblastoid cells; settings: Table 3-B, Potency (α4β7); range classes; read-out: α4β7 cell (Hu) IC50
T2 sequence (P13612 34-1032): as the sequence (P13612 34-1032) above
T2 sequence (P26010 20-798): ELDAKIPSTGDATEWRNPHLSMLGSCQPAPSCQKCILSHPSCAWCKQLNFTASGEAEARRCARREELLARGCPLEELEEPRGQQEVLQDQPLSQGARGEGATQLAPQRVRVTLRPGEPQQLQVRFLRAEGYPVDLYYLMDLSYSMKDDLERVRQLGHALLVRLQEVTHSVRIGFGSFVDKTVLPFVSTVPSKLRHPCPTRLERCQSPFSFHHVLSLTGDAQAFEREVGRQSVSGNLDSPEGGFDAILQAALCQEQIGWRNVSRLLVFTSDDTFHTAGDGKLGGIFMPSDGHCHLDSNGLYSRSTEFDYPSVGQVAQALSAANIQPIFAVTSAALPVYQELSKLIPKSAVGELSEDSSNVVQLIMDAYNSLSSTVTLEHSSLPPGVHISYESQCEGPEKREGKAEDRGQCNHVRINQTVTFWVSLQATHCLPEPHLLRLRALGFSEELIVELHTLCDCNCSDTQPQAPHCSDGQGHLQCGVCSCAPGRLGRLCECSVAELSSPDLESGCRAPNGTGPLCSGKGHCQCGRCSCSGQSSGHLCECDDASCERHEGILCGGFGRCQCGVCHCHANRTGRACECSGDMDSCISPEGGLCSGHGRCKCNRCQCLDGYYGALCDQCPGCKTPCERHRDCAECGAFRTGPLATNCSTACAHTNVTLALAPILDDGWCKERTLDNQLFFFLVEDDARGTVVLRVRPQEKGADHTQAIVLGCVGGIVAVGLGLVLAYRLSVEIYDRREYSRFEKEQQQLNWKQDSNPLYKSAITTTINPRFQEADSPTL
Summary of the method: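 Washed RPMI 8866 cells (200,000/well) in DMEM with 0.1% BSA, 10 mM HEPES pH 7, 1 mM MnCl2 adhered to rh MAdCAM-1/Fc-coated wells with serially diluted peptides, 30-45 min at 37 °C. After three washes, bound cells quantified by MTT, A570, cell-free background subtracted for dose response.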

[4] = molecular target: T2, α4β7; experiment: PBMC Memory T Cell Adhesion Assay, adhesion to MAdCAM-1; format: cell-based; settings: Table 3-B; range classes; read-out: PBMC IC50
Description: Fresh CD4+/CD45RO+ memory T cells were isolated from human peripheral blood mononuclear cell (PBMC) donors by Aragen Bioscience Inc. (Morgan Hill, Calif.). The assay plate was prepared using IgG Fc capture antibody (donkey anti human) immobilized at 500 ng/well in 50 mM sodium bicarbonate buffer, pH 9.5, ON, 4C onto a Greiner Fluotrac plate (100 ul per well). The plate was rinsed two time with Blocking Buffer (25 mM Tris HCl, pH7.5, 150 mM NaCl, 1.5% BSA, 0.05% Tween), and blocked with Blocking Buffer for 2 hours at 37 C or 5 hours at RT using 200 ul per well. The Blocking Buffer was removed and either MAdCAM-1 or VCAM-1 at 400 ng/well in Blocking Buffer was added and the plate incubated overnight at 4C (100 ul per well). The plate was washed two times with Blocking Buffer, and rinsed once with 200 ul Binding Media (DMEM phenol red free, 10 mM HEPES, 1×Na pyruvate, 1× Glutamine, and supplemented with 1 mM MnCl2 prior to use). To prepare cells, approximately 25 million CD4+/CD45RO+ memory T cells were counted by trypan blue exclusion using a haemocytometer to determine viability and cell count. The cells were transferred to a 50 ml conical tube, and centrifuged at 1200 rpm for 10 minute. The media was aspirated and the cell pellet resuspended in 15 ml Binding Media. The cells were centrifuged again and resuspended in the appropriate amount of Binding Media to be used for assays (50 ul of cells per well at 2× the final density). To each well, and equal volume (50 ul) of test compound was added and the plate was incubated for 1.5 hours at 37 C, 5% CO2. Each well was rinsed 3× with 150 ul per well of Binding Media. […] The plate was incubated at 37 C, 5% CO2, for 45 minutes. The plate was protected from light by using black adhesive seals. Fluorescence intensity was measured using a Molecular Devices Gemini EM Fluorescent Plate Reader (Ex 485/Em530, Bottom Read, Reading Sensitivity=20). IC50 curves are generated using Graph Pad Prism and the curves analyzed using analyzed using a non-linear regression (four parameters) algorithm. The log (concentration) versus RFU (Ex485/Em530) was plotted to determine IC50 values.

[5] = Simulated Intestinal Fluid (SIF) Stability Assay; format: in vitro ADME, porcine; settings: pig, simulated intestinal fluid (SIF) with 1% porcine pancreatin
Summary of the method: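 Peptides (22 μM final) incubated at 37 °C in FASSIF (pH 6.5) with 1% porcine pancreatin; aliquots quenched at various times and analyzed by LC-MS/MS against internal standard. Half-life from first-order exponential decay fit of percent remaining.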

[6] = Dithiothreitol (DTT) Redox Stability Assay; format: physicochemical; settings: Table 4-C, t1/2, 0.5 mM DTT
Description: For each peptide tested, the DTT stability assay was conducted by adding 5 μl of a 10 mM peptide stock solution in DMSO to 1 ml of 100 mM Tris-Cl, pH 7.5 (final peptide concentration is 50 μM). At time 0 min, 5 ul of a freshly thawed 100 mM DTT solution was added to the incubation tube containing the peptide, such that the final DTT concentration was 0.5 mM. The reactions were incubated at room temperature. At different time points up to 120 minutes (20 min, 40 min, 80 min, 120 min), 50 ul aliquots were removed, and the reaction was quenched by adding 10 μl of 5M acetic acid. To measure disappearance of the parent peptide, the quenched samples (30 μl) were analyzed by reverse phase HPLC and UV absorbance at 220 nm. The fraction oxidized remaining was graphed versus time, and half-lives were calculated by fitting to a first-order exponential decay equation using Excel.

[7] = molecular target: T3, rh integrin α4β7 (Homo sapiens, UniProt P13612+P26010); experiment: α4β7-MAdCAM Competition ELISA; format: binding; settings: Table 4-B; read-out: ELISA α4β7 IC50
T3 construct: purchased R&D Systems 5397-A30
T3 sequence (P13612 34-977 limits assumed): as the sequence (P13612 34-977 limits assumed, stated change not applied) above
T3 sequence (P26010 20-723 limits assumed): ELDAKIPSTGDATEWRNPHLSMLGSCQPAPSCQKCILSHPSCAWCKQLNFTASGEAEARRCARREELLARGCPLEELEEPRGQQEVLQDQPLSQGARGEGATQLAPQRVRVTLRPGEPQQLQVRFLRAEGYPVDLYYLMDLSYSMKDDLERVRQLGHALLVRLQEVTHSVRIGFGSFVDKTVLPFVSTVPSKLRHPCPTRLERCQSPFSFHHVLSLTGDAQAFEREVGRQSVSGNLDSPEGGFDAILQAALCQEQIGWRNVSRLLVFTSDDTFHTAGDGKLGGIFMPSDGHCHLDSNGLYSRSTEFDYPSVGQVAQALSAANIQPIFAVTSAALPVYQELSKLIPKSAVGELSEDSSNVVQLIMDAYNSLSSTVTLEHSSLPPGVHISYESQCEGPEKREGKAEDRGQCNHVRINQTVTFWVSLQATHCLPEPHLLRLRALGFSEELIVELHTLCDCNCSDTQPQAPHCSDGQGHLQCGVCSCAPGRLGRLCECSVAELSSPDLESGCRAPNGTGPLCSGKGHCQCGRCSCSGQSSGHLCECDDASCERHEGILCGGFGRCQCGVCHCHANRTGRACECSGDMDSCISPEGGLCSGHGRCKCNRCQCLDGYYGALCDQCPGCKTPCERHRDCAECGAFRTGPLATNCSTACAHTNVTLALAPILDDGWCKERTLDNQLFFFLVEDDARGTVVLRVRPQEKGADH
Summary of the method: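 Recombinant human α4β7 was captured on nickel plates at 800 ng/well. Peptide in 3-fold serial dilution (final top 10 μM) competed with MAdCAM-1 (final 10 nM) for 1 h at room temperature in 50 mM Tris pH 7.6, 150 mM NaCl, 1 mM MnCl2 or MgCl2. Bound MAdCAM-1 was detected with anti-human IgG1-HRP/TMB at A450.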

With CC(=O)N[C@@H]1C(=O)N(C)[C@@H](CCCNC(=N)N)C(=O)N[C@@H](CO)C(=O)N[C@@H](CC(=O)O)C(=O)N[C@@H]([C@@H](C)O)C(=O)N[C@@H](CC(C)C)C(=O)N[C@H](C(=O)N[C@@H](Cc2ccc3ccccc3c2)C(=O)N[C@H](CCC(=O)O)C(=O)N[C@H](CCCCNC(=O)COCC(=O)NCCCC[C@@H](NC(=O)[C@@H](CCC(=O)O)NC(=O)[C@H](Cc2ccc3ccccc3c2)NC(=O)[C@H]2NC(=O)[C@H](CC(C)C)NC(=O)[C@H]([C@@H](C)O)NC(=O)[C@H](CC(=O)O)NC(=O)[C@H](CO)NC(=O)[C@H](CCCNC(=N)N)N(C)C(=O)[C@@H](NC(C)=O)C(C)(C)SSC2(C)C)C(N)=O)C(N)=O)C(C)(C)SSC1(C)C [compound 33] (I: Ac-[Pen][NMeR]SDTL[Pen][2Nal][dE][dK]-NH2 / II: Ac-[Pen][NMeR]SDTL[Pen][2Nal][dE][dK]-NH2; disulfide I:1-I:7, II:1-II:7; linker I:10-II:10 via Diglycolyl) as the compound, how does the IC50 [1] read?
Its IC50 is 100 to 500 nM.

What about the IC50 [2] of the same compound?
Its IC50 is > 100000 nM.

For CC(=O)N[C@@H]1C(=O)N(C)[C@@H](CCCNC(=N)N)C(=O)N[C@@H](CO)C(=O)N[C@@H](CC(=O)O)C(=O)N[C@@H]([C@@H](C)O)C(=O)N[C@@H](CC(C)C)C(=O)N[C@H](C(=O)N[C@@H](Cc2ccc(C(C)(C)C)cc2)C(=O)N[C@@H](CCC(=O)O)CC(N)=O)C(C)(C)SSC1(C)C [compound 165] (Ac-[Pen][NMeR]SDTL[Pen][Phe(4-tBu)][β3hE]-NH2; disulfide 1-7), which IC50 [3] is on record?
Its IC50 is 10 to 25 nM.

What about the IC50 [4] of the same compound?
Its IC50 is 100 to 500 nM.

What about the half-life at 22 μM ([5]; pH 6.5, Table 3-B, > means experiment was stopped at that time and half life was not reached, read-out: Stabilty SIF t1/2) of the same compound?
Its half-life at 22 μM is > 180 min.

For CC(=O)N[C@@H]1C(=O)N(C)[C@@H](CCCNC(=N)N)C(=O)N[C@@H](CO)C(=O)N[C@@H](CC(=O)O)C(=O)N[C@@H]([C@@H](C)O)C(=O)N[C@@H](CC(C)C)C(=O)N[C@H](C(=O)N[C@@H](Cc2ccc(C(C)(C)C)cc2)C(=O)N[C@@H](CCC(=O)O)CC(=O)N[C@H](CCCCNC(=O)COCC(=O)NCCCC[C@@H](NC(=O)C[C@H](CCC(=O)O)NC(=O)[C@H](Cc2ccc(C(C)(C)C)cc2)NC(=O)[C@H]2NC(=O)[C@H](CC(C)C)NC(=O)[C@H]([C@@H](C)O)NC(=O)[C@H](CC(=O)O)NC(=O)[C@H](CO)NC(=O)[C@H](CCCNC(=N)N)N(C)C(=O)[C@@H](NC(C)=O)C(C)(C)SSC2(C)C)C(=O)O)C(=O)O)C(C)(C)SSC1(C)C [compound 168] (I: Ac-[Pen][NMeR]SDTL[Pen][Phe(4-tBu)][β3hE][dK]-OH / II: Ac-[Pen][NMeR]SDTL[Pen][Phe(4-tBu)][β3hE][dK]-OH; disulfide I:1-I:7, II:1-II:7; linker I:10-II:10 via Diglycolyl), which IC50 [3] is on record?
The IC50 was < 10 nM.

And the IC50 [4]?
Its IC50 is < 10 nM.

With CC(=O)N[C@@H]1C(=O)N[C@@H](CCCNC(=N)N)C(=O)N[C@@H](CO)C(=O)N[C@@H](CC(=O)O)C(=O)N[C@@H]([C@@H](C)O)C(=O)N[C@@H](CC(C)C)C(=O)N[C@H](C(=O)N[C@H](CCCCN)C(N)=O)CSSC1(C)C [compound 206, Ac-Pen-R-S-D-T-L-C-k-NH2] (Ac-[Pen]RSDTLC[dK]-NH2; disulfide 1-7) as the compound, how does the “DTT Min” value [6] read?
The value was 52 min.

What about the IC50 [7] of the same compound?
The IC50 was 97 nM.

What about the half-life at 22 μM ([5]; pH 6.5, Table 4-C, t1/2, > means assay stopped at that time, read-out: SIF (porcine) Min) of the same compound?
Its half-life at 22 μM is 26 min.
